From patent publication US20220257706A1, “EPIDERMAL GROWTH FACTOR RECEPTOR (EGFR) LIGANDS” (NANYANG TECHNOLOGICAL UNIVERSITY, priority 2019, published 2022)

Experiments:
HaCaT cells [1] = assay: EdU incorporation assay (DNA synthesis); assay type: cell-based, human
Protocol: EdU incorporation assay was performed using an EdU proliferative kit (iFluor 488) according to manufacturer's instructions. Briefly, 2.5×10^4 HaCaT cells per well were seeded in a 96-well plate. […] Cells were then fixed, permeabilized, and incubated in a reaction mix containing iFluor 488 for 30 min. The nuclei were stained using DAPI. The plates were visualized using a fluorescence microscope.

HaCaT cells [2] = assay: Cell migration scratch assay; assay type: cell-based, human; settings: data not shown
Protocol: Cell migration was monitored using the scratch assay. Briefly, HaCaT cells were seeded into 2 well silicone inserts with a defined gap of 500 μm (ibidi, Germany). […] After incubation for 8 h, the wells were photographed using inverted phase-contrast microscope. Images were analyzed for the percentage of cell-free area using the Wimasis image analysis platform.

HUVEC-CS cells = assay: Endothelial tube formation assay; assay type: cell-based; settings: data not shown
Protocol: Endothelial tube formation assay was performed using a μ-slide (ibidi, Germany). Briefly, 10 μL of gel matrix (BD Matrigel™ Basement Membrane Matrix) was casted onto each μ-slide well and left to solidify. […] After incubation for 2 h, the wells were photographed using inverted phase-contrast microscope. Images were analyzed for the numbering of branching points using the Wimasis image analysis platform.

newborn ICR mice = assay: Newborn mice model for incisor eruption; assay type: in vivo, mouse; settings: 3 mg/kg subcutaneous, five consecutive days; saline control 153 h
Protocol: ICR mice were obtained from Vital Rital Laboratories (Beijing, China). […] All experiments were approved and performed in accordance with the institutional guidelines of the Experimental Animal Center of the Chinese Academy of Medical Science (Beijing, China). Subcutaneous injections were made for five consecutive days in the nape of the neck of the newborn mice starting from the day of birth (day 0). […] Incisor eruption was recorded daily by visual inspection. Incisor eruption was defined as the time at which a given tooth first pierced the oral epithelium.

[3] = system: STZ-induced diabetic C57BL/6 mice; assay: Full-thickness splinted excisional wound healing in streptozotocin-induced diabetic C57BL/6 mice; assay type: in vivo, mouse; settings: 1 nmol/wound topical, five consecutive days
Protocol: Full-thickness 5-mm splinted excisional wounding of mice was performed. Briefly, mice were anesthetized using an intraperitoneal injection of sodium pentobarbital (50 mg kg^−1). The hair of the back was shaved with an electric clipper followed by a depilatory cream. Using a 5-mm-diameter sterile biopsy punch, symmetrical full-thickness excisional wounds were created. Splints were placed around the wound using adhesive glue and secured with four interrupted sutures. The wounds and splints were covered with Tegaderm (3M, US). At indicated days within the 14 days post-injury course, wound diameters were measured. The size of wound was calculated from the average of two diameter measurements along the x and y axis.
Diabetes was induced into C57BL/6 mice by two intraperitoneal injection (80 mg/kg) of STZ at day 1 and 5. Starting from day 8, blood glucose was monitored regularly for two weeks. […] Blood glucose was also monitored at day 14 post-injury to ensure the mice are diabetic.

ERK1/2 = assay: Western blot of phosphorylated ERK1/2 in HaCaT cells; assay type: cell-based, human; settings: 5 μM
Protocol: Blot transfer was performed onto a PVDF membrane (GE healthcare, Sweden) at 250 mA for 120 min on ice. The blot was blocked with 5% BSA TBST before incubating overnight at 4° C. with anti-P-MEK1/2 rabbit antibody (1:2000 in 5% BSA TBST; Cell Signaling, US), anti-MEK1/2 rabbit antibody (1:2000 in 5% BSA TBST; Cell Signaling, US), anti-P-ERK1/2 rabbit antibody (1:2000 in 5% BSA TBST; Cell Signaling, US), anti-ERK1/2 rabbit antibody (1:2000 in 5% BSA TBST; Cell Signaling, US), and anti-β-actin mouse antibody (1:10000 in 5% BSA TBST; Merck Millipore, US). After incubation, the membrane was washed with TBST at room temperature three times for 10 min each. The blot was then incubated with secondary anti-mouse or anti-rabbit horseradish peroxidase (HRP) (1:5000 in 5% BSA TBST; Cell Signaling, US) and was incubated for another 1 h at room temperature. The blot was washed five times 10 min each with TBST at room temperature before addition of chemiluminescence substrate (Advansta, US) and exposure on X-ray film (Fujifilm, Japan).

c-fos = assay: Gene expression analysis (qPCR) of c-fos in HaCaT cells; assay type: cell-based, human; settings: 2 h treatment
Protocol: Total RNA was extracted from HaCaT and primary human keratinocytes using PureLink™ RNA mini kit (Thermo Fisher Scientific, US). First-strand cDNA was synthesised from 600 ng of total RNA using SuperScript™ II Reverse Transcriptase and Oligo(dT)12-18 (Thermo Fisher Scientific, US) according to the manufacturer's instructions. Quantitative PCR (qPCR) was performed with iTaq Universal SYBR Green Supermix (Bio-Rad, US) on a CFX96 Touch Real-Time PCR Detection System (Bio-Rad, US) for 40 cycles. PCR reaction (20 μL): 3 μL cDNA, 1 μL primer mix (10 μM), 6 μL DEPC-treated water and 10 μL mastermix. […] GAPDH was used as a housekeeping gene for normalization. Fold changes of gene expressions with c-fos and c-Jun were calculated using the 2^−ΔΔCT method.

[4] = Heat stability (100° C., RP-HPLC); assay type: physicochemical; settings: 100° C.; read-out: calculated t1/2, heat treatment
Protocol: Samples were collected at various time points (0, 30, 60, and 120 min).

EGFR = EGFR (Homo sapiens, UniProt P00533); assay: TR-FRET EGFR ligand binding assay (competitive displacement of biotin-EGF); parameters: purchased PerkinElmer
Protocol: TR-FRET ratio was measured using a microplate reader in dual emission mode (Excitation: 340 nm, emission: 665 nm and 615 nm) (Cytation 1, US). […] (SEQ ID NO:11) or roseltide rT7 with an amino acid sequence of […] (SEQ ID NO:17) were used as negative control.

Human serum stability = settings: 25% human serum
Protocol: The test samples were incubated at 37° C. Samples were collected at various time points. The collected samples were subjected to protein precipitation with 100% ethanol and centrifugation at 180,000 g for 5 min at 4° C. The supernatant was collected for analysis.
(§1) All collected samples from various stability assays were analyzed by RP-HPLC with a linear gradient of mobile phase A (0.05% TFA/H2O) and mobile phase B (0.05% TFA/ACN) on aeris peptide XB-C18 column (Phenomenex, US). The resulting peaks were collected and identified by MALDI-TOF MS. The results were expressed as percentage of initial concentration using the peak area of the HPLC profile.

[5] = Acid stability (0.2 M HCl, 37° C.)
Protocol: Samples were collected at various time points.
as §1

EGFR, sequence (P00533 25-645 limits assumed): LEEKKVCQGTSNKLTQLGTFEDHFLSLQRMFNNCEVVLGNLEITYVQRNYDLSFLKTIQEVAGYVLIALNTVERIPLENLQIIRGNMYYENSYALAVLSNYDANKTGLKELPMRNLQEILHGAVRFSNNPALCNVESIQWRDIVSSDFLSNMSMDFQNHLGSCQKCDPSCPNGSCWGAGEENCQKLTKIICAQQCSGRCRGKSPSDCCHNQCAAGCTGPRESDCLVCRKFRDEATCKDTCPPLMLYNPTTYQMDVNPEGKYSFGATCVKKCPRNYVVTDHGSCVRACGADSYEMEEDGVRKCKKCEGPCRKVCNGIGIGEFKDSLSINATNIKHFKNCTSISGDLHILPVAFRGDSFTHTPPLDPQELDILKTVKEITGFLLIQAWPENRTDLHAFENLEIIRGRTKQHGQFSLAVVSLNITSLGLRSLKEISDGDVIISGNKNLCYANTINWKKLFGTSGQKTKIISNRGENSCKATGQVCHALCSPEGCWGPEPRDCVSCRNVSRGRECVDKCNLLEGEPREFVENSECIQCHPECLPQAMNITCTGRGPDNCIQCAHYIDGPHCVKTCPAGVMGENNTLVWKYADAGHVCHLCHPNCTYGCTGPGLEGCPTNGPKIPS

## CC[C@H](C)[C@@H]1NC(=O)[C@H](CCC(=O)O)NC(=O)[C@H]([C@@H](C)O)NC(=O)[C@@H]2CSSC[C@@H]3NC(=O)[C@H](Cc4ccccc4)NC(=O)[C@H](CC(N)=O)NC(=O)[C@H](CO)NC(=O)[C@H](CSSC[C@H](NC(=O)[C@@H](N)CCC(N)=O)C(=O)N[C@@H](CCCCN)C(=O)N4CCC[C@H]4C(=O)N[C@@H](CC(N)=O)C(=O)NCC(=O)N[C@@H](C)C(=O)N[C@@H](CCCCN)C(=O)N2)NC(=O)[C@H](CSSC[C@@H](C(=O)N[C@@H](C)C(=O)N[C@@H](CC(N)=O)C(=O)N[C@@H](CCCNC(=N)N)C(=O)O)NC(=O)[C@H]([C@@H](C)O)NC(=O)CNC(=O)[C@H](CO)NC(=O)[C@H](CCCCN)NC(=O)[C@H](CCC(N)=O)NC(=O)CNC(=O)[C@H](C)NC(=O)[C@H](Cc2ccc(O)cc2)NC(=O)[C@H](CCCNC(=N)N)NC(=O)[C@H](CC(C)C)NC3=O)NC(=O)[C@@H]2CCCN2C(=O)[C@@H]2CCCN2C(=O)[C@H]([C@@H](C)CC)NC(=O)[C@H](CO)NC1=O [bleogen pB1]
HaCaT cells [1]
  DNA synthesis of HaCaT cells (EdU incorporation): enhances DNA synthesis
HaCaT cells [2]
  HaCaT cell migration: accelerate
HUVEC-CS cells
  endothelial cell tube formation: accelerate
Newborn ICR mice
  time of incisor eruption in newborn mice: 125 h
[3]
  wound healing rate vs vehicle control in STZ-induced diabetic mice: healed at a significantly faster rate starting from day 4 post-injury
ERK1/2
  phosphorylation of ERK1/2: induces the phosphorylation
c-fos
  mRNA expression of c-fos: significantly upregulate
[4]
  half-life at 0.1 M: > 500 min
EGFR
  IC50: 1720 ± 0.075 nM
  potency relative to EGF in receptor displacement (fold less potent): 50-100 fold
Human serum stability
  half-life at 0.1 M: > 33.3 days
[5]
  half-life at 0.1 M: > 500 min
